Test results: article PMC7854658, “Structural basis for ligand recognition of the neuropeptide Y Y2 receptor” (Nature Communications, 2021)
Positions count from the first letter of the chain named. Where “and” joins values, the source holds several entries; their conditions need not be identical. Identical values can stand only once.

Tests used:
[1] = parameters: method as in Brothers, S. P. et al., Mol. Pharmacol. 77:46–57, 2010; settings: ref Brothers, S. P. et al., Mol. Pharmacol. 77:46–57, 2010; cited from earlier work
Y2R mutant W281^6.48T = biological target: T1, Y2R mutant W281^6.48T (Homo sapiens, UniProt P49146, W281T); experiment: NPY-induced IP accumulation (IP-One), mutant; type: cell-based
T1 construct: expressed in transfected cells; host or cells: HEK293
T1 sequence (P49146 1-381 W281T): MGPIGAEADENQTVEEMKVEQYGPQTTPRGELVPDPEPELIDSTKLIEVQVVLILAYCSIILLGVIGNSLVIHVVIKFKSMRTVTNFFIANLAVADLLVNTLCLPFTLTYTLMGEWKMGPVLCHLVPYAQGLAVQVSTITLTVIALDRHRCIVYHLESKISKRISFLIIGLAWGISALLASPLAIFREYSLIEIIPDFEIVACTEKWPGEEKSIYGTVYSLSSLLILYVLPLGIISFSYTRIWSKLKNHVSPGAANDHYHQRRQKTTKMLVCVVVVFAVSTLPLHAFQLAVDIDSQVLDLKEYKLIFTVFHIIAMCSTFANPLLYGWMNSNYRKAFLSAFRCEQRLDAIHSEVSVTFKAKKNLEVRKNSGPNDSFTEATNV

Y2R mutant F307^7.35A = biological target: T2, Y2R mutant F307^7.35A (Homo sapiens, UniProt P49146, F307A); experiment: NPY-induced IP accumulation (IP-One), mutant; type: cell-based
T2 construct: expressed in transfected cells; host or cells: HEK293
T2 sequence (P49146 1-381 F307A): T1 sequence (P49146 1-381 W281T) with T281W, F307A

Y2R mutant D292^6.59N = biological target: T3, Y2R mutant D292^6.59N (Homo sapiens, UniProt P49146, D292N); experiment: NPY-induced IP accumulation (IP-One), mutant; type: cell-based
T3 construct: expressed in transfected cells; host or cells: HEK293
T3 sequence (P49146 1-381 D292N): T1 sequence (P49146 1-381 W281T) with T281W, D292N

Y2R mutant V134^3.36A = biological target: T4, Y2R mutant V134^3.36A (Homo sapiens, UniProt P49146, V134A); experiment: NPY-induced IP accumulation (IP-One), mutant; type: cell-based
T4 construct: expressed in transfected cells; host or cells: HEK293
T4 sequence (P49146 1-381 V134A): T1 sequence (P49146 1-381 W281T) with V134A, T281W

[2] = tested on: opioid and adrenergic receptors; parameters: method as in Brothers, S. P. et al., Mol. Pharmacol. 77:46–57, 2010; settings: ref Brothers, S. P. et al., Mol. Pharmacol. 77:46–57, 2010; cited from earlier work
[3] = 1 μM antagonist, source data Fig. 3
[4] = EC50(NPY + 1 μM antagonist)/EC50(NPY)
[5] = EC50 ratio (WT)/EC50 ratio (mutant)

Average EC50 ratio (Y2R mutant W281^6.48T; [3]): 2.6 | EC50 ratio (individual experiments) (Y2R mutant W281^6.48T; [3]): 3.3 and 2.0 | EC50 ratio (Y2R mutant W281^6.48T; [4]): 3 and 2 | Ratio change (fold) (Y2R mutant W281^6.48T; [5]): 48 fold and 80 fold | Average EC50 ratio (Y2R mutant F307^7.35A; [3]): 89.4 | EC50 ratio (individual experiments) (Y2R mutant F307^7.35A; [3]): 68.0 and 110.9 | EC50 ratio (Y2R mutant F307^7.35A; [4]): 68 and 111 | Ratio change (fold) (Y2R mutant F307^7.35A; [5]): 2 fold and 1.4 fold | Average EC50 ratio (Y2R mutant D292^6.59N; [3]): 66.7 | EC50 ratio (individual experiments) (Y2R mutant D292^6.59N; [3]): 70.5 and 62.9 | EC50 ratio (Y2R mutant D292^6.59N; [4]): 71 and 63 | Average EC50 ratio (Y2R mutant V134^3.36A; [3]): 81.8 | EC50 ratio (individual experiments) (Y2R mutant V134^3.36A; [3]): 76.2 and 87.4 | EC50 ratio (Y2R mutant V134^3.36A; [4]): 76 and 87 | Ratio change (fold) (Y2R mutant V134^3.36A; [5]): 2 fold and 1.8 fold
Structure (SMILES): N=C(N)NCCC[C@H](NC(=O)CC1(CC(=O)N2CCN(C3c4ccccc4NC(=O)c4ccccc43)CC2)CCCC1)C(=O)NCCn1c(=O)n(-c2ccccc2)n(-c2ccccc2)c1=O (some centres unmarked) [BIIE0246]
Blood-brain-barrier permeability [1]: poor | Affinities at opioid and adrenergic receptors [2]: submicromolar
